Test results as given in patent US6452009B1, “4-unsubstituted dihydroisoquinolinone derivatives and combinatorial libraries thereof” (Lion Bioscience AG, priority 1999, dated 2002).

test system: Streptococcus pyogenes (ATCC #97-03 14289); test: Anti-microbial screen (growth inhibition, OD 570 nm); assay type: cell-based; settings: ATCC97, 4 h
Method: Streptococcus pyogenes (ATCC #97-03 14289) are grown in Todd Hewitt Broth (THB) (Difco Laboratories #0492-17-6) overnight until they reach an optical density of (OD=0.636@570 nm) by reading 0.1 ml in a 96 well microtiter plate in a Molecular Devices Thermomax. This preparation is kept frozen as stocks in 30% v/v glycerol in 1.5 ml aliquots at −70° C. until use. Prior to screening, 1.5 ml aliquots are thawed and diluted into 50 ml THB. 200 μl of this dilution is added to 92 wells of microtiter plate. To three wells THB (200 μl) is added to serve as a blank and a sterility control. Test compounds in DMSO and appropriate concentrations of DMSO are added to Growth/Solvent Controls at 0 time. Plates are read at 0 time at 570 nm in the Molecular Devices plate reader to obtain compounds correction factors for insoluble or colored compounds. Plates are read again at 4 hrs.
Compounds are assayed at a concentration of 170 μg/ml. Percent inhibition for each compound is calculated using the following formulae:
Color correct=(O.D. 0 hr −Blank 0 hr)—(Solvent Control 0 hr−Blank 0 hr)
% Inhibition=100−(O.D. test compound 4 hr−Blank 4 hr−color correct) divided by (O.D. growth/solvent control 4 hr−Blank 4 hr)

Going from `CCOP(=O)(CC(=O)Nc1ccc2c(c1)C(=O)N(CCC(=O)N(CCN(C)C)CC(N)=O)C(c1ccc(C(F)(F)F)cc1)C2)OCC` (stereo not drawn) to `C=CCN(CC(N)=O)C(=O)CCN1C(=O)c2cc(NC(=O)CP(=O)(OCC)OCC)ccc2CC1c1cccc(Oc2ccc(Cl)c(Cl)c2)c1` (stereo not drawn), the inhibition at 170 µg/mL falls from 98.9% to 98.5%.

same assay, conditions: ATCC97, compounds assayed at 170 μg/ml, growth in Todd Hewitt Broth read at 570 nm at 4 hrs, read-out: % Inhibition

Going from `CN(C)CCN(CC(N)=O)C(=O)CCN1C(=O)c2cc(NC(=O)C3(c4ccccc4)CC3)ccc2CC1c1cccc2ccccc12` (stereo not drawn) to `CN(C)CCN(CC(N)=O)C(=O)CCN1C(=O)c2cc(NC(=O)C3(c4ccccc4)CC3)ccc2CC1c1ccccc1` (stereo not drawn), the inhibition at 170 µg/mL rises from 99% to 99.5%.

Compared with `CN(C)CCN(CC(N)=O)C(=O)CCN1C(=O)c2cc(NC(=O)CC3CC4CCC3C4)ccc2CC1c1ccc(C(F)(F)F)cc1` (stereo not drawn), `CN(C)CCN(CC(N)=O)C(=O)CCN1C(=O)c2cc(NC(=O)CC3CC4CCC3C4)ccc2CC1c1ccc(F)c(F)c1` (stereo not drawn) is lower in inhibition at 170 µg/mL: 99.2% for the first, 98.4% for the second.

Going from `COc1ccc(Br)c(C(=O)Nc2ccc3c(c2)C(=O)N(Cc2ccc(C(=O)N(CCN(C)C)CC(N)=O)cc2)C(c2ccc(F)c(F)c2)C3)c1` (stereo not drawn) to `CN(C)CCN(CC(N)=O)C(=O)c1ccc(CN2C(=O)c3cc(NC(=O)/C=C/c4ccccc4C(F)(F)F)ccc3CC2c2ccc(F)c(F)c2)cc1` (stereo not drawn), the inhibition at 170 µg/mL falls from 99.5% to 98.4%.

First: CC1CCC(C(=O)Nc2ccc3c(c2)C(=O)N(Cc2ccc(C(=O)N(CCN(C)C)CC(N)=O)cc2)C(c2cccc(C#N)c2)C3)CC1 (stereo not drawn)
Second: CN(C)CCN(CC(N)=O)C(=O)c1ccc(CN2C(=O)c3cc(NC(=O)c4cccc(C(F)(F)F)c4F)ccc3CC2c2cccc(C#N)c2)cc1 (stereo not drawn)
The inhibition at 170 µg/mL of the first is lower: 98.5% for the first, 99.5% for the second.

Going from `CN(C)CCN(CC(N)=O)C(=O)CCN1C(=O)c2cc(NC(=O)c3ccc(F)c(F)c3)ccc2CC1c1ccc(C(C)(C)C)cc1` (stereo not drawn) to `CN(C)CCN(CC(N)=O)C(=O)CCN1C(=O)c2cc(NC(=O)c3ccccc3F)ccc2CC1c1ccc(C(C)(C)C)cc1` (stereo not drawn), the inhibition at 170 µg/mL falls from 98.7% to 98.2%.

Going from `NC(=O)CN(Cc1cccc(C(F)(F)F)c1)C(=O)CCN1C(=O)c2cc(NC(=O)CC3CC4CCC3C4)ccc2CC1c1cccnc1` (stereo not drawn) to `NC(=O)CN(Cc1cccc(C(F)(F)F)c1)C(=O)CCN1C(=O)c2cc(NC(=O)CCC3CCCC3)ccc2CC1c1cccc(Oc2ccc(Cl)c(Cl)c2)c1` (stereo not drawn), the inhibition at 170 µg/mL falls from 99.2% to 98.7%.

`Cc1ccc(C2Cc3ccc(NC(=O)c4cc(C(F)(F)F)cc(C(F)(F)F)c4)cc3C(=O)N2CCC(=O)N(CCN(C)C)CC(N)=O)cc1` (stereo not drawn) and `CN(C)CCN(CC(N)=O)C(=O)CCN1C(=O)c2cc(NC(=O)c3cccc(C(F)(F)F)c3F)ccc2CC1c1ccccc1` (stereo not drawn) are the same in inhibition at 170 µg/mL: 99.2% for the first, 99.2% for the second.

First: CN(C)CCN(CC(N)=O)C(=O)CCN1C(=O)c2cc(NC(=O)c3ccc(I)cc3)ccc2CC1c1ccc2ccccc2n1 (stereo not drawn)
Second: Cc1cc(C)c(C(=O)C(=O)Nc2ccc3c(c2)C(=O)N(CCC(=O)N(CCN(C)C)CC(N)=O)C(c2ccc4ccccc4n2)C3)c(C)c1 (stereo not drawn)
The inhibition at 170 µg/mL of the first is higher: 99.5% for the first, 99.2% for the second.

First: CN(C)CCCOc1ccc(C2Cc3ccc(NC(=O)Cc4cccc(C(F)(F)F)c4)cc3C(=O)N2CCC(=O)N(CC(N)=O)C2CC2)cc1 (stereo not drawn)
Second: CN(C)CCCOc1ccc(C2Cc3ccc(NC(=O)Cc4cccc(C(F)(F)F)c4)cc3C(=O)N2CCC(=O)N(CCN(C)C)CC(N)=O)cc1 (stereo not drawn)
The inhibition at 170 µg/mL of the first is higher: 99.9% for the first, 99.8% for the second.

First: CN(C)CCN(CC(N)=O)C(=O)c1ccc(CN2C(=O)c3cc(NC(=O)/C=C/c4ccccc4C(F)(F)F)ccc3CC2c2ccc(C(C)(C)C)cc2)cc1 (stereo not drawn)
Second: CSc1ccccc1C(=O)Nc1ccc2c(c1)C(=O)N(Cc1ccc(C(=O)N(CCN(C)C)CC(N)=O)cc1)C(c1ccc(C(F)(F)F)cc1)C2 (stereo not drawn)
The inhibition at 170 µg/mL of the first is higher: 98.5% for the first, 98.3% for the second.

Going from `CN(C)CCCOc1ccc(C2Cc3ccc(NC(=O)CCC4CCCCC4)cc3C(=O)N2CCC(=O)N(CCN(C)C)CC(N)=O)cc1` (stereo not drawn) to `CN(C)CCCOc1ccc(C2Cc3ccc(NC(=O)CCC4CCCC4)cc3C(=O)N2CCC(=O)N(CC(N)=O)C2CC2)cc1` (stereo not drawn), the inhibition at 170 µg/mL falls from 99% to 98.2%.

Compared with `CN(C)CCN(CC(N)=O)C(=O)c1ccc(CN2C(=O)c3cc(NC(=O)c4ccc(OC(F)(F)F)cc4)ccc3CC2c2cccc(C#N)c2)cc1` (stereo not drawn), `CCCN(CC(N)=O)C(=O)c1ccc(CN2C(=O)c3cc(NC(=O)c4ccc(OC(F)(F)F)cc4)ccc3CC2c2ccc(OCCCN(C)C)cc2)cc1` (stereo not drawn) is higher in inhibition at 170 µg/mL: 99.5% for the first, 99.7% for the second.

Compared with `CCCC(CCC)C(=O)Nc1ccc2c(c1)C(=O)N(Cc1ccc(C(=O)N(CC(N)=O)Cc3ccccc3)cc1)C(c1ccc(OCCCN(C)C)cc1)C2` (stereo not drawn), `CN(C)CCCOc1ccc(C2Cc3ccc(NC(=O)CC4CCCC4)cc3C(=O)N2Cc2ccc(C(=O)N(CC(N)=O)Cc3ccccc3)cc2)cc1` (stereo not drawn) is lower in inhibition at 170 µg/mL: 99.5% for the first, 99.2% for the second.

First: CN(C)CCN(CC(N)=O)C(=O)c1ccc(CN2C(=O)c3cc(NC(=O)c4c(F)cccc4F)ccc3CC2c2ccc(C(C)(C)C)cc2)cc1 (stereo not drawn)
Second: Cc1ccc(C2Cc3ccc(NC(=O)c4cccnc4Cl)cc3C(=O)N2Cc2ccc(C(=O)N(CCN(C)C)CC(N)=O)cc2)cc1 (stereo not drawn)
The inhibition at 170 µg/mL of the first is higher: 99% for the first, 98.8% for the second.

Compared with `CCCCCC(=O)Nc1ccc2c(c1)C(=O)N(CCC(=O)N(CC(N)=O)Cc1cccc(C(F)(F)F)c1)C(c1ccc(C(C)(C)C)cc1)C2` (stereo not drawn), `CCCCCCCC(=O)Nc1ccc2c(c1)C(=O)N(CCC(=O)N(CC(N)=O)Cc1cccc(C(F)(F)F)c1)C(c1ccc(OCCCN(C)C)cc1)C2` (stereo not drawn) is lower in inhibition at 170 µg/mL: 99.4% for the first, 98.5% for the second.

Compared with `Cc1ccc2oc(C(=O)Nc3ccc4c(c3)C(=O)N(CCC(=O)N(CC(N)=O)Cc3cccc(C(F)(F)F)c3)C(c3ccc(F)c(F)c3)C4)cc(=O)c2c1` (stereo not drawn), `CC(CC(=O)Nc1ccc2c(c1)C(=O)N(Cc1ccc(C(=O)N(CC(N)=O)Cc3cccc(C(F)(F)F)c3)cc1)C(c1ccc(F)c(F)c1)C2)CC(C)(C)C` (stereo not drawn) is higher in inhibition at 170 µg/mL: 99.2% for the first, 99.3% for the second.

Going from `CN(C)CCCOc1ccc(C2Cc3ccc(NC(=O)CCC4CCCC4)cc3C(=O)N2Cc2ccc(C(=O)N(CC(N)=O)Cc3ccccc3)cc2)cc1` (stereo not drawn) to `CN(C)CCCOc1ccc(C2Cc3ccc(NC(=O)CC4CC5CCC4C5)cc3C(=O)N2Cc2ccc(C(=O)N(CC(N)=O)Cc3ccccc3)cc2)cc1` (stereo not drawn), the inhibition at 170 µg/mL falls from 99.5% to 98.2%.

First: CN(C)CCCOc1ccc(C2Cc3ccc(NC(=O)COc4ccc5ccccc5c4)cc3C(=O)N2CCC(=O)N(CC(N)=O)Cc2cccc(C(F)(F)F)c2)cc1 (stereo not drawn)
Second: CN(C)CCCOc1ccc(C2Cc3ccc(NC(=O)c4cc(C(F)(F)F)cc(C(F)(F)F)c4)cc3C(=O)N2Cc2ccc(C(=O)N(CC(N)=O)C3CC3)cc2)cc1 (stereo not drawn)
The inhibition at 170 µg/mL of the first is lower: 99.6% for the first, 99.9% for the second.

Going from `NC(=O)CN(C(=O)CCN1C(=O)c2cc(NC(=O)/C=C/c3ccccc3C(F)(F)F)ccc2CC1c1cccc(Oc2ccc(Cl)c(Cl)c2)c1)C1CC1` (stereo not drawn) to `COc1cc(OC)cc(C2Cc3ccc(NC(=O)c4ccc(OC(F)(F)F)cc4)cc3C(=O)N2CCC(=O)N(CCN(C)C)CC(N)=O)c1` (stereo not drawn), the inhibition at 170 µg/mL rises from 98.5% to 99.5%.

First: C=CCN(CC(N)=O)C(=O)CCN1C(=O)c2cc(NC(=O)C(=O)c3c(C)cc(C)cc3C)ccc2CC1c1ccc(OCCCN(C)C)cc1 (stereo not drawn)
Second: Cc1cnc(C(=O)Nc2ccc3c(c2)C(=O)N(CCC(=O)N(CCN(C)C)CC(N)=O)C(c2ccc(C(C)(C)C)cc2)C3)cn1 (stereo not drawn)
The inhibition at 170 µg/mL of the first is higher: 98.7% for the first, 98.5% for the second.

Going from `CCCC(CCC)C(=O)Nc1ccc2c(c1)C(=O)N(CCC(=O)N(CCN(C)C)CC(N)=O)C(c1cc(OC)cc(OC)c1)C2` (stereo not drawn) to `COc1cc(OC)cc(C2Cc3ccc(NC(=O)C4CCC(C)CC4)cc3C(=O)N2CCC(=O)N(CCN(C)C)CC(N)=O)c1` (stereo not drawn), the inhibition at 170 µg/mL rises from 98.2% to 99.8%.

Going from `CCCCCC/C=C/C(=O)Nc1ccc2c(c1)C(=O)N(CCC(=O)N(CCN(C)C)CC(N)=O)C(c1ccccc1)C2` (stereo not drawn) to `CCCCCC/C=C/C(=O)Nc1ccc2c(c1)C(=O)N(CCC(=O)N(CCN(C)C)CC(N)=O)C(c1ccc(SC)cc1)C2` (stereo not drawn), the inhibition at 170 µg/mL rises from 99.8% to 99.9%.

First: CN(C)CCN(CC(N)=O)C(=O)c1ccc(CN2C(=O)c3cc(NC(=O)CCC4CCCC4)ccc3CC2c2ccc(C(F)(F)F)cc2)cc1 (stereo not drawn)
Second: CN(C)CCN(CC(N)=O)C(=O)c1ccc(CN2C(=O)c3cc(NC(=O)CCC4CCCCC4)ccc3CC2c2ccc(C(F)(F)F)cc2)cc1 (stereo not drawn)
The inhibition at 170 µg/mL of the first is lower: 99% for the first, 99.6% for the second.

Going from `NC(=O)CN(Cc1ccccc1)C(=O)CCN1C(=O)c2cc(NC(=O)CCC3CCCC3)ccc2CC1c1cccc2ccccc12` (stereo not drawn) to `CN(C)CCN(CC(N)=O)C(=O)CCN1C(=O)c2cc(NC(=O)CCC3CCCC3)ccc2CC1c1cccc2ccccc12` (stereo not drawn), the inhibition at 170 µg/mL rises from 98.4% to 99.8%.

`COc1cc(OC)cc(C2Cc3ccc(NC(=O)CCC4CCCC4)cc3C(=O)N2CCC(=O)N(CCN(C)C)CC(N)=O)c1` (stereo not drawn) and `CN(C)CCN(CC(N)=O)C(=O)CCN1C(=O)c2cc(NC(=O)CC3CCCC3)ccc2CC1c1ccc(C(C)(C)C)cc1` (stereo not drawn) are the same in inhibition at 170 µg/mL: 99.5% for the first, 99.5% for the second.

Going from `COc1cc(OC)cc(C2Cc3ccc(NC(=O)c4ccc(F)c(F)c4)cc3C(=O)N2CCC(=O)N(CCN(C)C)CC(N)=O)c1` (stereo not drawn) to `CN(C)CCN(CC(N)=O)C(=O)CCN1C(=O)c2cc(NC(=O)c3ccc(C#N)cc3)ccc2CC1c1ccc(C(C)(C)C)cc1` (stereo not drawn), the inhibition at 170 µg/mL falls from 99.5% to 98.5%.

First: CN(C)CCN(CC(N)=O)C(=O)c1ccc(CN2C(=O)c3cc(NC(=O)CCC4CCCC4)ccc3CC2c2ccc3ccccc3n2)cc1 (stereo not drawn)
Second: CN(C)CCN(CC(N)=O)C(=O)c1ccc(CN2C(=O)c3cc(NC(=O)CC4CC5CCC4C5)ccc3CC2c2cccc3ccccc23)cc1 (stereo not drawn)
The inhibition at 170 µg/mL of the first is lower: 98.6% for the first, 99.5% for the second.

With `CSc1ccc(C2Cc3ccc(NC(=O)CC(C)CC(C)(C)C)cc3C(=O)N2Cc2ccc(C(=O)N(CCN(C)C)CC(N)=O)cc2)cc1` (stereo not drawn) the inhibition at 170 µg/mL was 99.5%.
